Consider three molecules from patent publication US20200239530A1, “COMPOUNDS AND METHODS OF MODULATING PROTEIN DEGRADATION” (Vividion Therapeutics, Inc., priority 2017, published 2020).

The structures appear in SMILES notation. Read-outs that look alike come from different tables or passages of the source.

What all share (assay): Cysteine liganding, probe competition
Format in all cases: binding

Test [1] addresses T1, UniProt O60260 (Homo sapiens, UniProt O60260).
T1 construct: 200 μL of lysate containing 5 mg/ml proteome was treated with 2 μL of 100× compound stock; endogenous in cells
T1 sequence (O60260 1-465): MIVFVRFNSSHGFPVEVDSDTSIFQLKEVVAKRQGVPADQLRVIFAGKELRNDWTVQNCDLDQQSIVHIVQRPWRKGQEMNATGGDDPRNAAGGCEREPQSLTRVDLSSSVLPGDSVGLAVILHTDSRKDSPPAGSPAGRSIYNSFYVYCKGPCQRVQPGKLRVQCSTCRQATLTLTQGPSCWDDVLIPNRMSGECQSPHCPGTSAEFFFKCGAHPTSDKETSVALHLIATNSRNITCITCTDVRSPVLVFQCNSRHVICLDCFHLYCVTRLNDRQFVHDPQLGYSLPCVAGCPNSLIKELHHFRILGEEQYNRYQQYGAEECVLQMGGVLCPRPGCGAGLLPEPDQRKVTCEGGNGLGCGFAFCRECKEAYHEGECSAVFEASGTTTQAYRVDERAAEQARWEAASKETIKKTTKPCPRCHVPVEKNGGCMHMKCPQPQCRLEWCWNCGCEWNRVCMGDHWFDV
An excerpt: (§1) The following 96-well sample prep protocol was used for sample preparation.

Test [2] addresses T2, UniProt Q9BUL5 (Homo sapiens, UniProt Q9BUL5).
T2 construct: 200 μL of lysate containing 5 mg/ml proteome was treated with 2 μL of 100× compound stock; endogenous in cells
From the text: as §1

Test [3] deals with T3, UniProt Q9BY78 (Homo sapiens, UniProt Q9BY78).
T3 construct: 200 μL of lysate containing 5 mg/ml proteome was treated with 2 μL of 100× compound stock; endogenous in cells
T3 sequence (Q9BY78 1-433): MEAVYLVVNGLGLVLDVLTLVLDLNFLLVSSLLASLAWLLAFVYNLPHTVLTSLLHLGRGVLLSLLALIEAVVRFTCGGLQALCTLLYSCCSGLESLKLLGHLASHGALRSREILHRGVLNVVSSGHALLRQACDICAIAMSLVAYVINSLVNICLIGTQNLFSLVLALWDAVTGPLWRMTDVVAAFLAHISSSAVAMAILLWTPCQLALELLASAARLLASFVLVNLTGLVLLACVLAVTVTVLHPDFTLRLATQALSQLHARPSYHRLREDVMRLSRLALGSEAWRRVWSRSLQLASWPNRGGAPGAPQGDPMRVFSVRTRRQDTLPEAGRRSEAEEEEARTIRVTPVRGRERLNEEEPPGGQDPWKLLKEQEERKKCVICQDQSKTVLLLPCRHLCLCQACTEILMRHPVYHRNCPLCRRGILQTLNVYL
To be noted: for inhibition at 500 µM: read-out: percent_inhibition.
From the text: as §1

Test [4] has as its target T4, RNF25 E3 ubiquitin-protein ligase RNF25 (Homo sapiens, UniProt Q96BH1).
T4 sequence (Q96BH1 1-459): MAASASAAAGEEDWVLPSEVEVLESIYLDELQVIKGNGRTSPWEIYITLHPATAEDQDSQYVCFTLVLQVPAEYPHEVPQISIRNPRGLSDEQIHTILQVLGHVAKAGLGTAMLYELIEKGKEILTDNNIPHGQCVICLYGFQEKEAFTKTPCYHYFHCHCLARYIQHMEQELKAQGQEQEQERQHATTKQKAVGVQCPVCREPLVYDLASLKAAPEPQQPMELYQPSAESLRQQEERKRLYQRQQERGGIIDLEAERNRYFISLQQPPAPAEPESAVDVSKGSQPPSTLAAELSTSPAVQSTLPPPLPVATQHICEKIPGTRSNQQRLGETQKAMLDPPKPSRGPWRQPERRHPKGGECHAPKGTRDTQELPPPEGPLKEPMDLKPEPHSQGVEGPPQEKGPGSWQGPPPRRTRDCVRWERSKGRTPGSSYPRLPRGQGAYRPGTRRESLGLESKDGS
The arrangement: endogenous in cells. On the procedure: Cells were resuspended in cold PBS on ice and sonicated with a probe sonicator to achieve lysis. 200 μL of lysate containing 5 mg/ml proteome was treated with 2 μL of 100× compound stock in a 2-mL deep-well plate. The treated lysate was subsequently incubate at 25° C. for 1 hr with shaking at 600 rpm. The treated lysate was further incubated with 2 μL of 10 mM desthiobiotin iodoacetamide probe at 25° C. for 1 hr with shaking at 600 rpm. Next, the lysate was further treat with 20 μL of solution of PBS containing 11 mM MgSO4 and 2.5% Turbonuclease stock and incubated at 25° C. for 20 minutes with shaking at 600 rpm. 1.7 mL ice-cold acetone was added to each well and incubated at −20° C. for 2 hr, followed by max speed (4200 rpm) spin for 45 min. Acetone was then decanted and the plates were blotted to remove acetone. The plates were then dried in open air for 20 minutes. After drying, the plates were then covered with foil seal and stored at −80° C. overnight.
The next day, samples were re-suspended in 90 μL of solution of 9M urea, 50 mM ammonium bicarbonate and 10 mM DTT by incubating at 65C for 20 min with shaking at 1500 rpm. Next, samples were cooled to 37° C. and then 10 μL of 500 mM iodoacetamide solution (92.48 mg/ml) was added. The samples were then incubated at 37° C. for 30 min with shaking at 600 rpm.
ZEBA desalting plates were equilibrated 4 times using 250 μL of 2M urea, 50 mM ammonium bicarbonate solution followed by centrifugation at 1500 rpm for 2 minutes. After equilibration was complete, samples were applied to ZEBA desalting plate and spin at 1500 rpm for 2 min on top of 1 mL 96-well deep-well collection plate to buffer exchange samples. 4 μL of solution containing 25 mM CaCl2 and 0.25 mg/mL trypsin was added to the plate and the plate was then incubated at 37° C. for 2 hrs with shaking at 600 rpm. 300 μL of solution containing 5% high-capacity streptavidin agarose slurry in 25 mM Tris-HCl pH 7.5, 150 mM NaCl, and 0.1% NP-40 then added. The plate was incubated at 25° C. for 2 hrs with shaking at 600 rpm. Samples were transferred to 25 μm filter plate and spin at 1000 rpm for 2 min. Samples were then washed 3 times with 0.75 mL of wash buffer (25 mM Tris-HCl pH 7.5, 150 mM NaCl, and 0.1% NP-40) followed by washing 3 times with 0.75 mL PBS, and then 4 times with 0.75 mL water. After the washing step, samples were eluted into polypropylene 96-well plate by addition of 250 µL of 50% MeCN/water, 0.1% formic acid and allowed to gravity drip for 10 min, followed by centrifugation at 1000 rpm for 2 min. Speedvac was used to dry the plates at about 45° C. for […]. Then the plates were covered with foil seal and stored at −20° C.
Samples were resuspended by addition of 20 μl of 12.5% ACN, 0.1% formic acid solution, covered with foil seal, and incubated at 42° C. for 10 minutes with shaking at 600 rpm. Then add 30 μL of 0.1% formic acid solution was added and the plate was covered and incubated at 42° C. for 10 minutes with shaking at 600 rpm. Seal plate was then sealed with a 96-well silicon mat for analysis.

T2 sequence (Q9BUL5 whole entry, change not shown): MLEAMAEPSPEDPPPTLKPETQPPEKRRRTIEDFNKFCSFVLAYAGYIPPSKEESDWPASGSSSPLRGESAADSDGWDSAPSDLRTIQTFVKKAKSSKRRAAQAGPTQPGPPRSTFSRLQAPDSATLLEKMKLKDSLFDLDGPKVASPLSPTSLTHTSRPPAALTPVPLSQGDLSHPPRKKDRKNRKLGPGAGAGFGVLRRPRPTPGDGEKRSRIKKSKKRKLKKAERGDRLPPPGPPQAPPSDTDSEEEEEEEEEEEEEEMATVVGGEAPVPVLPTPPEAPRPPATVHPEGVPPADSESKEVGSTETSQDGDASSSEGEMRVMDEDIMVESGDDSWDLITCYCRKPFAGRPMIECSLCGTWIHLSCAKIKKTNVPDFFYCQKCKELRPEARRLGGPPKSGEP

In the case of `COc1ccc2c(c1)CCCN2C(=O)CCl` [KB02], the inhibition at 500 µM was 92% in test [1] (read-out: KB02_500 uM_percent_inhibition) and 31% in test [3]. Besides, the inhibition at 100 µM in test [2] (100 uM, read-out: KB02_100 uM_percent_inhibition) was 13%. Moreover, the Liganded entry in test [4] (RNF25 Res# 417, uniprot Q96BH1) is reported as “YES”.

Consider `C=CC(=O)N(c1ccccc1)c1ccc(Br)cc1` [KB05], for which the inhibition at 500 µM in test [1] (read-out: KB05_500 uM_percent_inhibition) was determined as 93%; in test [2] (500 uM, read-out: KB05_500 uM_percent_inhibition), 27%; in test [3] it was 30%. Further, the inhibition at 100 µM stood at 29% in test [2] (100 uM, read-out: KB05_100 uM_percent_inhibition) and 11% in test [4] (100 uM, UniProt Q96BH1, read-out: percent_inhibition). In addition, the “KB05_500 uM_percent_inhibition” value in test [2] (500 uM) is recorded as 30%.

Turning to `O=C(CCl)Nc1cc(C(F)(F)F)cc(C(F)(F)F)c1` [KBO3], in test [1] (500 uM), the “KB03_500 uM_percent_inhibition” value is reported as 91%. Also, in test [2] (100 uM), the “KB03_100 uM_percent_inhibition” value was 16%. In test [3] (500 uM), this molecule registered a percent_inhibition of 54%. In test [4] (uniprot Q96BH1), the 100 ave came to 14.3, the “500 Max” value was 62.0 and the 500 ave came to 62.0. The same molecule displayed a 100 Max in test [4] (uniprot Q96BH1, unit assumed) of 14.3%.
